In PubChem BioAssay AID405 (SGCOxCompounds, 2006) one finds IC50 and inhibition data, which are given here for 27 compounds.

Receptor-type tyrosine-protein phosphatase R (Homo sapiens), sequence (Q15256 whole entry, looked up): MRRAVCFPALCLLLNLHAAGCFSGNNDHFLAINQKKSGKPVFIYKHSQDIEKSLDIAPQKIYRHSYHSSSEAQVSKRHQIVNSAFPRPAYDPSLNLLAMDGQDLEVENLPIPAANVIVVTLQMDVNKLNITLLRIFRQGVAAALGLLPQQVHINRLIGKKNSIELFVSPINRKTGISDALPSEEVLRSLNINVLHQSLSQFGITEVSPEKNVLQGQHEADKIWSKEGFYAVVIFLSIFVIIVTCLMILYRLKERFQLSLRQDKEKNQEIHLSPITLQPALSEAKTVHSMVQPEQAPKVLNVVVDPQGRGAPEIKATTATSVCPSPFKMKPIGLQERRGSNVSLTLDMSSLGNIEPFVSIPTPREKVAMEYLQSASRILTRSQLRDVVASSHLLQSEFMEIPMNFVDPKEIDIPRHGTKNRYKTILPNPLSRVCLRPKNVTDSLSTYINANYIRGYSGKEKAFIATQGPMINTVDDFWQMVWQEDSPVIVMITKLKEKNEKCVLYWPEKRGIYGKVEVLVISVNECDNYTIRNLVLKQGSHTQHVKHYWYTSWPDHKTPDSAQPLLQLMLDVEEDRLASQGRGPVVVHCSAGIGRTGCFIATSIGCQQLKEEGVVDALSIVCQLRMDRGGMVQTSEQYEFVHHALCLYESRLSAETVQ

The first assay addresses Receptor-type tyrosine-protein phosphatase R (Homo sapiens) (UniProt Q15256). Nature of the assay: PTPRR phosphatase inhibition, biochemical, recombinant human enzyme, DiFMUP fluorescence (AID 405). The settings on record: DiFMUP fluorescence phosphatase assay.
In the case of `Cc1ccc(C)n1-c1cc(C(=O)O)ccc1O`, the IC50 is 3.9 µM.

Consider `O=C(O)c1ccc(O)c(C=Nc2ccc3oc(-c4ccc(F)cc4Cl)nc3c2)c1`, for which the IC50 was 7.3 µM.

In the case of `CC(=O)c1ccc2c(c1)C1C=CCC1C(C(=O)O)N2` (configuration not stated), the IC50 is 6.7 µM.

Turning to `Cc1ccc(C)n1-c1ccc(C(=O)O)cc1O`, the IC50 was 13.7 µM.

Turning to `COc1ccc(-c2nc3cc(N=Cc4cc(C(=O)O)ccc4O)ccc3o2)cc1`, the IC50 was 15.9 µM.

On to `Cc1ccc2nc(-c3cc(N=Cc4cc(C(=O)O)ccc4O)ccc3O)[nH]c2c1`, for which the concentration for half-maximal inhibition (IC50) was 25.6 µM.

Take `NC1=NC(=O)/C(=C/C=C/c2ccc([N+](=O)[O-])o2)S1`: the concentration for half-maximal inhibition (IC50) was 2.3 µM.

Still in this assay, the particulars now being: DiFMUP fluorescence phosphatase assay, at 50 µM, active compounds read high.
In the case of `O=C(O)c1ccc(O)c(/C=N/N(CCO)C2=NS(=O)(=O)c3ccccc32)c1`, the inhibition is 66%.

As to `Cn1nc(/C=C/c2ccccc2)nc2c(=O)n(C)c(=O)nc1-2`, the inhibition was 77%.

Turning to `CCn1nc(/C=C/c2ccccc2)[n+](=O)c2c(=O)n(C)c(=O)[nH]c21`, the inhibition is 63%.

For the compound `O=C(O)c1ccc(O)c(C=Nc2ccc3oc(-c4cccc(Cl)c4)nc3c2)c1`, the inhibition is 83%.

In the case of `O=C([O-])c1ccccn1.OO.OO.[K+].[K+].[O]=[V]`, the inhibition was 98%.

Regarding `O=C(O)c1ccc(O)c(C=Nc2cccc(-c3nc4ccccc4o3)c2)c1`, the inhibition was 58%.

As for `O=C(O)c1ccc(O)cn1.OO.[O]=[V]`, the inhibition was 95%.

On to `O=C1NC(=S)NC(=O)C1=C/C=C/c1ccco1`, for which the inhibition is 100%.

Consider `CN(N=O)c1ccc(O)c(O)c1`, for which the inhibition is 33%.

Take `Cc1ccc2oc(-c3cccc(N=Cc4cc(C(=O)O)ccc4O)c3)nc2c1`: the inhibition was 51%.

Turning to `CC(C)(c1ccc(NS(=O)(=O)C(F)(F)F)cc1)c1ccc(C(C)(C)c2ccc(NS(=O)(=O)C(F)(F)F)cc2)cc1`, the inhibition was 91%.

Regarding `O=C(O)c1ccc([O-])cn1.OO.OO.[K+].[K+].[O]=[V]`, the inhibition is 98%.

Consider `O=C(O)c1ccc(O)c(N2C(=O)Nc3ccccc3N2O)c1`, for which the inhibition is 76%.

For `COc1ccc(OC)c(N=Cc2cc(C(=O)O)ccc2O)c1`, the inhibition is 69%.

Turning to `OO.OO.[K+].[O]=[V].c1ccc(-c2ccccn2)nc1`, the inhibition is 98%.

With `O=C(O)c1ccc(O)c(C=Nc2ccc3oc(-c4cccc(Cl)c4Cl)nc3c2)c1`, the inhibition was 66%.

With `CCn1nc(-c2ccc(Cl)cc2)nc2c(=O)n(C)c(=O)nc1-2`, the inhibition was 64%.

Turning to `O=C(O)c1ccc(O)c(C=Nc2ccc3oc(-c4cc(Cl)ccc4Cl)nc3c2)c1`, the inhibition is 81%.

`O=C(O)c1ccc(O)c(C=Nc2ccc3oc(-c4ccccc4)nc3c2)c1`: the inhibition was 66%.

Consider `O=C1NC(=S)S/C1=C\C=C\c1ccc([N+](=O)[O-])o1`, for which the inhibition is 100%.

The term IC50 denotes the midpoint of a concentration-inhibition curve. By inhibition is commonly meant the drop in the measured response relative to a control, in per cent.
